Results taken from patent US4241069A, “3-Methylene flavanones and 3-methylene chromanones” (Miles Laboratories, Inc., priority 1979, dated 1980).
In brackets after ≈: the same amount, converted by molar mass.

Columns and labels:
S. aureus NRRL B2747 = assay: MIC, agar incorporation method; type: cell-based, Staphylococcus aureus; details: Staphylococcus aureus, NRRLB2747, 32° C., 24 hours, read-out: Minimal Inhibitory Concentration
Experimental: (§1) The compounds of the present invention were tested for their ability to inhibit the growth of microorganisms by in vitro tests. Generally the in vitro tests involve growing representative microorganisms under conditions favorable to such growth and measuring the effectiveness of one or more compounds in inhibiting or destroying the growth of the microorganisms. The microorganisms used include representative bacteria, fungi and yeasts.
(§2) A representative selection of the test microorganisms were cultured in a nutrient broth, such as, for example, Eugon, commercially available from Difco Laboratories, Detroit, Michigan. Bacteria and Candida species were cultured for 24 hours at 32°-37° C. and fungi were cultured for approximately one week at 32° C. Inocula were prepared by suspending the growth or spores from a slant culture in sufficient sterile normal (0.9 percent) saline or Eugon broth, to yield cell or spore concentrations of 1,000,000 cells per milliliter. Anaerobic bacteria were cultured for 48-72 hours at 32°-37° C. in a thioglycollate containing medium, for example, Fluid Thioglycollate medium or NIH thioglycollate broth, commercially available from Difco Laboratories.
(§3) The compounds of the present invention were tested for activity against bacteria, yeasts and fungi by the agar incorporation method described below. MA 1347, 3-(dimethylaminomethyl)flavanone (disclosed in U.S. Pat. No. 3,753,985) was used as a comparative standard along with controls for each solvent system used.
(§4) A series of agar plates containing two-fold dilutions of each compound to be tested, ranging in concentration from 100 to 3.1 mcg/ml of agar medium was prepared. Aliquots of each concentration (100, 50, 25, 12.5, 6.2, and 3.1) prepared in N,N-dimethylformamide or 50 percent aqueous DMF were added to liquid Eugon agar at 48° C. (one part test solution to 100 parts agar). In some cases, tests with further dilutions to 0.125 mcg/ml were conducted. The agar medium, containing the 3-methylene flavanone or chromanone compound to be tested, was then dispensed into petri dishes and allowed to solidify. The solidified plates were kept overnight at room temperatures to dry the surface of the agar.
(§5) The agar plates were then inoculated with a drop of the standardized cell or spore suspension. Inoculated plates were incubated at 32° C. The inhibition end-point or minimum inhibitory concentration (MIC) shown in Table D represent the lowest concentration of test compound which inhibited the growth of the microorganism. Visual determination of growth inhibition was used. Bacteria and yeast end-points were determined after 24 hours incubation; molds, dermatophytes and anaerobes after 48-72 hours incubation. MIC values shown as ranges represent the extremes found in repeat assays. Virtually all such values were written plus or minus one dilution, the accepted variation of a two-fold dilution assay.

[1] = test system: Microsporum gypseum ATCC 14683; assay: MIC, agar incorporation method; type: cell-based; details: Nannizzia gypsea, ATCC14683, 32° C., 48-72 hours; read-out: Minimal Inhibitory Concentration
Experimental: as §1, §2, §3, §4, §5

[2] = test system: Staphylococcus aureus ATCC 6538; assay: MIC, agar incorporation method; type: cell-based; details: Staphylococcus aureus, ATCC6538; S. aureus ATCC 6538; 32° C., 24 hours; read-out: Minimal Inhibitory Concentration
Experimental: as §1, §2, §3, §4, §5

[3] = test system: Candida albicans ATCC 10231; assay: MIC, agar incorporation method; type: cell-based; details: ATCC10231, C. albicans ATCC 10231, 32° C., 24 hours, read-out: Minimal Inhibitory Concentration
Experimental: as §1, §2, §3, §4, §5

[4] = test system: Aspergillus niger ATCC 16404; assay: MIC, agar incorporation method; type: cell-based; details: ATCC16404, 32° C., 48-72 hours, read-out: Minimal Inhibitory Concentration
Experimental: as §1, §2, §3, §4, §5

C. albicans NRRL Y-477 = assay: MIC, agar incorporation method; type: cell-based; details: Candida albicans, NRRLY477, 32° C., 24 hours, read-out: Minimal Inhibitory Concentration
Experimental: as §1, §2, §3, §4, §5

[5] = test system: Trichophyton mentagrophytes ATCC 4807; assay: MIC, agar incorporation method; type: cell-based; details: ATCC4807, 32° C., 48-72 hours, read-out: Minimal Inhibitory Concentration
Experimental: as §1, §2, §3, §4, §5

C. guillermondii VM 42 = assay: MIC, agar incorporation method; type: cell-based; details: 32° C., 24 hours; read-out: Minimal Inhibitory Concentration
Experimental: as §1, §2, §3, §4, §5

[6] = test system: Streptococcus faecalis ATCC 10541; assay: MIC, agar incorporation method; type: cell-based; details: Enterococcus faecalis, ATCC10541; 32° C., 24 hours; read-out: Minimal Inhibitory Concentration
Experimental: as §1, §2, §3, §4, §5

T. rubrum ATCC 10218 = assay: MIC, agar incorporation method; type: cell-based; details: Trichophyton rubrum, ATCC10218; 32° C., 48-72 hours; read-out: Minimal Inhibitory Concentration
Experimental: as §1, §2, §3, §4, §5

[7] = test system: Pseudomonas aeruginosa ATCC 14502; assay: MIC, agar incorporation method; type: cell-based; details: ATCC14502, 32° C., 24 hours, read-out: Minimal Inhibitory Concentration
Experimental: as §1, §2, §3, §4, §5

[8] = test system: Escherichia coli ATCC 8739; assay: MIC, agar incorporation method; type: cell-based; details: ATCC8739, 32° C., 24 hours, read-out: Minimal Inhibitory Concentration
Experimental: as §1, §2, §3, §4, §5

C. tropicalis NRRL Y1410 = assay: MIC, agar incorporation method; type: cell-based; details: Candida tropicalis, NRRLY1410; 32° C., 24 hours; read-out: Minimal Inhibitory Concentration
Experimental: as §1, §2, §3, §4, §5

T. mentagrophytes TM-2 = assay: MIC, agar incorporation method; type: cell-based; details: Trichophyton mentagrophytes, TM2, 32° C., 48-72 hours, read-out: Minimal Inhibitory Concentration
Experimental: as §1, §2, §3, §4, §5

A. fumigatus NRRL 165 = assay: MIC, agar incorporation method; type: cell-based; details: Aspergillus fumigatus, NRRL165, 32° C., 48-72 hours, read-out: Minimal Inhibitory Concentration
Experimental: as §1, §2, §3, §4, §5

T. mentagrophytes CDC = assay: MIC, agar incorporation method; type: cell-based; details: Trichophyton mentagrophytes, 32° C., 48-72 hours, read-out: Minimal Inhibitory Concentration
Experimental: as §1, §2, §3, §4, §5

C. krusei VM 29B = assay: MIC, agar incorporation method; type: cell-based; details: Pichia kudriavzevii, VM29B; 32° C., 24 hours; read-out: Minimal Inhibitory Concentration
Experimental: as §1, §2, §3, §4, §5

A. fumigatus NRRL 163 = assay: MIC, agar incorporation method; type: cell-based; details: Aspergillus fumigatus, NRRL163, NRRL 163; 32° C., 48-72 hours; read-out: Minimal Inhibitory Concentration
Experimental: as §1, §2, §3, §4, §5

[9] = test system: Propionobacterium acnes ATCC 6919; assay: MIC, agar incorporation method, anaerobic; type: cell-based; details: 48 hours at 35° C., GasPak Anaerobic Jar, read-out: Minimal Inhibitory Concentration
Experimental: as §1, §2, §3, §4, §5
*Anaerobic: 48 hours incubation at 35° C. GasPak Anaerobic Jar

| SMILES | MIC (S. aureus NRRL B2747) [µg/mL] | MIC [1] [µg/mL] | MIC [2] [µg/mL] | MIC [3] [µg/mL] | MIC [4] [µg/mL] | MIC (C. albicans NRRL Y-477) [µg/mL] | MIC [5] [µg/mL] | MIC (C. guillermondii VM 42) [µg/mL] | MIC [6] [µg/mL] | MIC (T. rubrum ATCC 10218) [µg/mL] | MIC [7] [µg/mL] | MIC [8] [µg/mL] | MIC (C. tropicalis NRRL Y1410) [µg/mL] | MIC (T. mentagrophytes TM-2) [µg/mL] | MIC (A. fumigatus NRRL 165) [µg/mL] | MIC (T. mentagrophytes CDC) [µg/mL] | MIC (C. krusei VM 29B) [µg/mL] | MIC (A. fumigatus NRRL 163) [µg/mL] | MIC [9] [µg/mL] |
| --- | --- | --- | --- | --- | --- | --- | --- | --- | --- | --- | --- | --- | --- | --- | --- | --- | --- | --- | --- |
| C=C1C(=O)c2ccccc2OC1c1cccc(Cl)c1 (stereo not drawn) [Ex. 2, 3'-chloro-3-methylene flavanone] | 6.2 (≈ 22.9 µM) | 6.2 (≈ 22.9 µM) | ≤ 3.1 | 25 (≈ 92.3 µM) | 100 (≈ 369 µM) | 25 (≈ 92.3 µM) | 6.2 (≈ 22.9 µM) | 50 (≈ 185 µM) | 25 (≈ 92.3 µM) | ≤ 3.1 | > 100 | > 100 | 50 (≈ 185 µM) | 6.2 (≈ 22.9 µM) | 100 (≈ 369 µM) | 12.5 (≈ 46.2 µM) | 25 (≈ 92.3 µM) |  |  |
| C=C1C(=O)c2ccccc2OC1c1ccc(Br)cc1 (stereo not drawn) [Ex. 6, 4'-bromo-3-methylene flavanone] | 6.2 (≈ 19.7 µM) | 6.2 (≈ 19.7 µM) | ≤ 3.1 | 25 (≈ 79.3 µM) | 50 (≈ 159 µM) | 25 (≈ 79.3 µM) | 6.2 (≈ 19.7 µM) | 25 (≈ 79.3 µM) | 25 (≈ 79.3 µM) | 6.2 (≈ 19.7 µM) | > 100 | > 100 | 25 (≈ 79.3 µM) | 6.2 (≈ 19.7 µM) | 50 (≈ 159 µM) | 12.5 (≈ 39.7 µM) | 25 (≈ 79.3 µM) |  |  |
| C=C1C(=O)c2ccccc2OC1c1cccc(OC)c1 (stereo not drawn) [Ex. 7, 3'-methoxy-3-methylene flavanone] | 25 (≈ 93.9 µM) | 25 (≈ 93.9 µM) | 25 (≈ 93.9 µM) | > 100 | > 100 | 100 (≈ 376 µM) | 25 (≈ 93.9 µM) | > 100 | 100 (≈ 376 µM) | 12.5 (≈ 46.9 µM) | > 100 | > 100 | > 100 | 25 (≈ 93.9 µM) | > 100 | 25 (≈ 93.9 µM) | 100 (≈ 376 µM) |  |  |
| C=C1C(=O)c2ccccc2OC1c1ccc(OC)cc1 (stereo not drawn) [Ex. 8, 4'-methoxy-3-methylene flavanone] | 12.5 (≈ 46.9 µM) | 12.5 (≈ 46.9 µM) | 12.5 (≈ 46.9 µM) | 100 (≈ 376 µM) | 100 (≈ 376 µM) | 100 (≈ 376 µM) | 12.5 (≈ 46.9 µM) | 100 (≈ 376 µM) | > 100 | 25 (≈ 93.9 µM) | > 100 | > 100 | > 100 | 12.5 (≈ 46.9 µM) |  | 12.5 (≈ 46.9 µM) | 50 (≈ 188 µM) | 50 (≈ 188 µM) | > 100 |
| C=C1C(=O)c2ccccc2OC1c1ccc(C(C)(C)C)cc1 (stereo not drawn) [Ex. 14, 4'-t-butyl-3-methylene flavanone] | 3.1 to 6.2 (≈ 10.6 to 21.2 µM) | 12.5 to 25 (≈ 42.8 to 85.5 µM) | ≤ 3.1 |  | 100 (≈ 342 µM) |  | 25 (≈ 85.5 µM) | > 100 | 25 to 50 (≈ 85.5 to 171 µM) | 12.5 to 25 (≈ 42.8 to 85.5 µM) | > 100 | > 100 | > 100 | 25 (≈ 85.5 µM) |  | 25 (≈ 85.5 µM) | 50 (≈ 171 µM) |  | ≤ 100 |
| C=C1C(=O)c2ccc(OC)cc2OC1c1ccc(Cl)cc1 (stereo not drawn) [Ex. 18, 4'-chloro-7-methoxy-3-methylene flavanone] | 6.2 (≈ 20.6 µM) | 6.2 (≈ 20.6 µM) | ≤ 3.1 | 50 (≈ 166 µM) | 25 (≈ 83.1 µM) | 50 (≈ 166 µM) | 12.5 (≈ 41.6 µM) | > 100 | 50 (≈ 166 µM) | 12.5 (≈ 41.6 µM) | > 100 | > 100 | > 100 | 12.5 (≈ 41.6 µM) |  | 12.5 (≈ 41.6 µM) | 25 (≈ 83.1 µM) | 12.5 (≈ 41.6 µM) | ≤ 100 |
| C=C1C(=O)c2cc(C)ccc2OC1c1ccccc1 (stereo not drawn) [compound 19, 6-methyl-3-methylene flavanone] | 6.2 (≈ 24.8 µM) | 6.2 (≈ 24.8 µM) | 6.2 (≈ 24.8 µM) | 25 (≈ 99.9 µM) | 25 (≈ 99.9 µM) | 25 (≈ 99.9 µM) | 6.2 (≈ 24.8 µM) | 25 (≈ 99.9 µM) | 50 (≈ 200 µM) | 6.2 (≈ 24.8 µM) | > 100 | > 100 | 25 (≈ 99.9 µM) | 6.2 (≈ 24.8 µM) |  | 6.2 (≈ 24.8 µM) | 25 (≈ 99.9 µM) | 25 (≈ 99.9 µM) | ≤ 100 |
